From patent US8987459B2, “Compounds for the treatment of conditions associated with DGAT1 activity” (Novartis AG, priority 2013, dated 2015)
In brackets after ≈: the same amount, converted by molar mass. Structures can show the parent of a compound that is named as a salt. Where two headings read alike, the source gives them in different places. Marks after values point to notes of the source that are not given here.

Assays:
[1] = Hygroscopicity (relative humidity); assay type: physicochemical; conditions: for Change in crystallinity (PXRD): listed under hygroscopicity
[2] = Intrinsic dissolution rate; assay type: physicochemical
[3] = Solubility in buffers, biorelevant media and water
[4] = Oral exposure and bioavailability in rat; assay type: in vivo; conditions: for dose linearity: suspension
Procedure: (§1) Direct in vivo comparison of 2-((1R,4R)-4-(4-(5-(benzo[d]oxazol-2-ylamino)pyridin-2-yl)phenyl)cyclohexyl)acetic acid meglumine and 2-((1R,4R)-4-(4-(5-(benzo[d]oxazol-2-ylamino)pyridin-2-yl)phenyl)cyclohexyl)acetic acid sodium salt suspensions were performed in rat and mouse. […] From this preclinical data, it was confirmed that 2-((1R,4R)-4-(4-(5-(benzo[d]oxazol-2-ylamino)pyridin-2-yl)phenyl)cyclohexyl)acetic acid meglumine is a better performing salt.

[5] = Oral bioavailability in mouse; assay type: in vivo; conditions: suspension at 30 mg/kg
Procedure: as §1

[6] = Aqueous kinetic solubility, physical blend with polymers and/or surfactants; assay type: physicochemical; conditions: simple physical blend with polymers and/or surfactants
Procedure: (§2) A standard capsule formulation with 2-((1R,4R)-4-(4-(5-(benzo[d]oxazol-2-ylamino)pyridin-2-yl)phenyl)cyclohexyl)acetic acid meglumine is the recommended CSF strategy to support the projected efficacious dose range in human (11-120 mg) based on following observations: • Low efficacious dose of 2-((1R,4R)-4-(4-(5-(benzo[d]oxazol-2-ylamino)pyridin-2-yl)phenyl)cyclohexyl)acetic acid in preclinical species (0.1-0.3 mg/kg) • High exposure multiples in preclinical species (rat and dog) from a suspension formulation of 2-((1R,4R)-4-(4-(5-(benzo[d]oxazol-2-ylamino)pyridin-2-yl)phenyl)cyclohexyl)acetic acid meglumine • Aqueous kinetic solubility of 2-((1R,4R)-4-(4-(5-(benzo[d]oxazol-2-ylamino)pyridin-2-yl)phenyl)cyclohexyl)acetic acid meglumine can be further improved (20-60 fold) from simple physical blend with polymers and/or surfactants • Improvement in exposure and dose linearity from 2-((1R,4R)-4-(4-(5-(benzo[d]oxazol-2-ylamino)pyridin-2-yl)phenyl)cyclohexyl)acetic acid meglumine over the sodium salt

[7] = Oral exposure and bioavailability in dog; assay type: in vivo
Procedure: (§3) With a meglumine salt suspension at 100 mg/kg, about 33% decrease in plasma exposure was observed compared to solid dispersion. […] The solid dispersion formulation has several technical challenges which can be avoided by using a 2-((1R,4R)-4-(4-(5-(benzo[d]oxazol-2-ylamino)pyridin-2-yl)phenyl)cyclohexyl)acetic acid meglumine Form A suspension-based formulation.

[8] = Efficacious dose in preclinical species; assay type: in vivo
Procedure: as §2

Efficacious AUC in dog = assay type: in vivo; conditions: plasma, 0.3 mg/kg, at 0.3 mpk
Procedure: as §3

[9] = background statement, no medium given

Row | SMILES | Hygroscopicity [%] 0-40% r.h. [1] | Hygroscopicity [%] 0-95% r.h. [1] | Change in crystallinity (PXRD) [1] | Intrinsic Dissolution Rate ([2]; pH 4.5 (50 mM Acetate)) | Intrinsic Dissolution Rate ([2]; pH 6.8 (50 mM Phosphate)) | Solubility ([3]; FaSSIF V2) | pH final of solubility sample ([3]; FaSSIF V2) | Solubility ([3]; FeSSIF V2) | pH final of solubility sample ([3]; FeSSIF V2) | Solubility ([3]; SGF pH 2.0) | pH final of solubility sample ([3]; SGF pH 2.0) | Solubility ([3]; Water) | pH final of solubility sample ([3]; Water) | Solubility ([3]; pH 1 (0.1N HCl)) | pH final of solubility sample ([3]; pH 1 (0.1N HCl)) | Solubility ([3]; pH 4.8 (50 mM Acetate)) | pH final of solubility sample ([3]; pH 4.8 (50 mM Acetate)) | Solubility ([3]; pH 6.5 (50 mM Phosphate)) | pH final of solubility sample ([3]; pH 6.5 (50 mM Phosphate)) | dose linearity ([4]; 30 and 100 mg/kg) | other results
1 | O=C(O)C[C@H]1CC[C@H](c2ccc(-c3ccc(Nc4nc5ccccc5o4)cn3)cc2)CC1 [Meglumine Form A, Meglumine salt of 2-((1R,4R)-4-(4-(5-(benzo[d]oxazol-2-ylamino)pyridin-2-yl)phenyl)cyclohexyl)acetic acid] | 0.162% | 0.588% | No | BLQ | BLQ | 10 µg/mL | (6.86) | 1 µg/mL | (6.26) | <0.5 µg/mL | (2.37) | 70 µg/mL | (10.4) | 150 µg/mL | (2.79) | <0.5 µg/mL | (4.88) | 40 µg/mL | (7.27) |  | 
2 | O=C([O-])C[C@H]1CC[C@H](c2ccc(-c3ccc(Nc4nc5ccccc5o4)cn3)cc2)CC1.[Na+] [Sodium, 2-((1R,4R)-4-(4-(5-(benzo[d]oxazol-2-ylamino)pyridin-2-yl)phenyl)cyclohexyl) acetate sodium salt] | 13.1% | 16.2% | No |  |  | 7 µg/mL | (7.47) | 3 µg/mL | (5.66) |  | (9.13) | 23 µg/mL | (9.3) | <0.5 µg/mL | (1.03) | <0.5 µg/mL | (5.08) | 0.6 µg/mL | (8.5) | not dose linear | bioavailability ([4]; suspension at 30 mg/kg): 7.6%; bioavailability ([4]; suspension at 100 mg/kg): 4.6%; bioavailability [5]: 9.6%; Solubility [mg/ml] ([3]; SGF pH 2.0): 0.062* mg/ml
3 | O=C(O)C[C@H]1CC[C@H](c2ccc(-c3ccc(Nc4nc5ccccc5o4)cn3)cc2)CC1 [meglumine salt, meglumine salt of 2-((1R,4R)-4-(4-(5-(benzo[d]oxazol-2-ylamino)pyridin-2-yl)phenyl)cyclohexyl)acetic acid] |  |  |  |  |  |  |  |  |  |  |  |  |  |  |  |  |  |  |  | dose linear | dose linearity ([4]; 300 mpk): non-linear; bioavailability ([4]; in vivo, oral, 300 mg/kg, suspension at 300 mpk, read-out: bioavailability): 1.9%; bioavailability ([4]; in vivo, oral, suspension at 30 mg/kg, read-out: bioavailability): 3.1%; bioavailability ([4]; in vivo, oral, suspension at 100 mg/kg, read-out: bioavailability): 3.8%; bioavailability ([5]; in vivo, oral, read-out: bioavailability): 17.3%; improvement of aqueous kinetic solubility [6]: 20-60 fold; bioavailability ([7]; plasma, po, 30 mg/kg solution dose (sodium material dissolved in 10% HPβCD in purified water or PBS), read-out: Absolute oral bioavailability): 1.5%; decrease in plasma exposure compared to solid dispersion ([7]; suspension at 100 mg/kg): about 33%; exposure over the efficacious AUC ([7]; suspension at 100 mg/kg): ~150 ×
4 | O=C([O-])C[C@H]1CC[C@H](c2ccc(-c3ccc(Nc4nc5ccccc5o4)cn3)cc2)CC1.[K+] [Potassium, 2-((1R,4R)-4-(4-(5-(benzo[d]oxazol-2-ylamino)pyridin-2-yl)phenyl)cyclohexyl) acetate Potassium salt] | 4.52% | 21.77% | No |  |  | 95 µg/mL | (8.32) |  |  | 3 µg/mL | (3.73) | 1050 µg/mL | (10.3) | 50 µg/mL | (3.89) | <0.5 µg/mL | (4.90) | <0.5 µg/mL | (7.29) |  | 

More lines, main results first:

Row | Hygroscopicity [%] 0-40% r.h. [1] | Hygroscopicity [%] 0-95% r.h. [1] | Change in crystallinity (PXRD) [1] | Intrinsic Dissolution Rate ([2]; pH 4.5 (50 mM Acetate)) | Intrinsic Dissolution Rate ([2]; pH 6.8 (50 mM Phosphate)) | Solubility ([3]; FaSSIF V2) | pH final of solubility sample ([3]; FaSSIF V2) | Solubility ([3]; FeSSIF V2) | pH final of solubility sample ([3]; FeSSIF V2) | Solubility ([3]; SGF pH 2.0) | pH final of solubility sample ([3]; SGF pH 2.0) | Solubility ([3]; Water) | pH final of solubility sample ([3]; Water) | Solubility ([3]; pH 1 (0.1N HCl)) | pH final of solubility sample ([3]; pH 1 (0.1N HCl)) | Solubility ([3]; pH 4.8 (50 mM Acetate)) | pH final of solubility sample ([3]; pH 4.8 (50 mM Acetate)) | Solubility ([3]; pH 6.5 (50 mM Phosphate)) | pH final of solubility sample ([3]; pH 6.5 (50 mM Phosphate)) | dose linearity ([4]; 30 and 100 mg/kg) | SMILES | other results
5 | 1.44% | 15.95% | No | BLQ |  |  |  |  |  |  |  |  |  |  |  |  |  |  |  |  | C[N+](C)(C)CCO.O=C(O)C[C@H]1CC[C@H](c2ccc(-c3ccc(Nc4nc5ccccc5o4)cn3)cc2)CC1.O=C([O-])C[C@H]1CC[C@H](c2ccc(-c3ccc(Nc4nc5ccccc5o4)cn3)cc2)CC1 [Hemi-choline, 2-((1R,4R)-4-(4-(5-(benzo[d]oxazol-2-ylamino)pyridin-2-yl)phenyl)cyclohexyl) acetate Hemi-choline salt] | Solubility (pH 1): 140 µg/mL; pH final of solubility sample (pH 1): (1.06); Solubility (pH 2): 95 µg/mL; pH final of solubility sample (pH 2): (1.05); Solubility (pH 4.8): 15 µg/mL; pH final of solubility sample (pH 4.8): (4.76); Solubility (pH 6.5): 30 µg/mL; pH final of solubility sample (pH 6.5): (7.15)
6 | 0.136% | 0.251% | No | 0.013 mg min^−1 cm^−2 | BLQ |  | (6.34) | 60 µg/mL (≈ 140 µM) | (5.53) |  | (2.38) | 10 µg/mL (≈ 23.4 µM) | (7.63) | <0.5 µg/mL | (1.59) |  | (4.76) | <0.5 µg/mL | (6.87) |  | O=C(O)C[C@H]1CC[C@H](c2ccc(-c3ccc(Nc4nc5ccccc5o4)cn3)cc2)CC1 [Free acid, 2-((1R,4R)-4-(4-(5-(benzo[d]oxazol-2-ylamino)pyridin-2-yl)phenyl)cyclohexyl)acetic acid] | efficacious dose in preclinical species [8]: 0.1 to 0.3 mg/kg; AUC (Efficacious AUC in dog): 0.132 µM·h; intrinsic dissolution (in words) [2, 9]: low; Solubility ([3]; 50 mM acetate buffer, pH 4.8, aqueous buffer, Solubility [mg/ml], pH 4.8 (50 mM Acetate)): < 0.5 µg/mL; Solubility ([3]; FaSSIF V2, fassif, Solubility [mg/ml], FaSSIF V2): 20 µg/mL (≈ 46.8 µM); Solubility ([3]; SGF, pH 2, simulated gastric fluid, Solubility [mg/ml], SGF pH 2.0): < 0.5 µg/mL; solubility (in words) [3, 9]: low
